From article PMC8558502 (The Biochemical journal, 2020)

How the values were obtained:
Rhizopus delemar = test: Growth; type: cell-based; conditions: kojic acid 50 μg/ml, 3 days
[1] = tested on: R. delemar tyrosinase enzyme activity; type: cell-based, Rhizopus delemar; conditions: 10 μg/ml, 3 days, protein extract with 10 mM L-DOPA
[2] = tested on: Rhizopus delemar melanin production; conditions: cited from earlier work

SMILES: O=c1cc(CO)occ1O [Kojic acid]
- Effect on growth of fungal hyphae (Rhizopus delemar): significant reduction in the growth of fungal hyphae
- Inhibitory effect on melanin biosynthesis (tyrosinase activity) of R. delemar [1]: highest

SMILES: CC(C)c1ccc(C=O)cc1 [Cuminaldehyde, cuminaldehyde]
- Reduction of melanin production from R. delemar [2]: causes reduction of melanin production
- Inhibitory effect on melanin biosynthesis (tyrosinase activity) of R. delemar [1]: highest
